Read-outs that look alike come from different tables or passages of the source.
Assays:
Drosophila OR10a = target: T1, Drosophila OR10a (Drosophila melanogaster, UniProt Q9VYZ1); assay: Calcium ion fluorescence (GCaMP6) assay, OR10a stable HEK293 cell line; format: cell-based; conditions: for activation at 1 µM / activation at 10 µM / activation at 100 µM: 50 μM VUAA1 = 1, responses not exceeding 0.05 considered 0; for OR10a response (VUAA1-normalized) at 1 μM / OR10a response (VUAA1-normalized) at 10 μM / OR10a response (VUAA1-normalized) at 100 μM: OR10a cell line; for OR10a response (VUAA1-normalized) at 1 μM: VOC concentration 1 μM; for OR10a response (VUAA1-normalized) at 10 μM: VOC concentration 10 μM; for OR10a response (VUAA1-normalized) at 100 μM: VOC concentration 100 μM
T1 construct: expressed in transfected cells
T1 sequence (Q9VYZ1 1-406): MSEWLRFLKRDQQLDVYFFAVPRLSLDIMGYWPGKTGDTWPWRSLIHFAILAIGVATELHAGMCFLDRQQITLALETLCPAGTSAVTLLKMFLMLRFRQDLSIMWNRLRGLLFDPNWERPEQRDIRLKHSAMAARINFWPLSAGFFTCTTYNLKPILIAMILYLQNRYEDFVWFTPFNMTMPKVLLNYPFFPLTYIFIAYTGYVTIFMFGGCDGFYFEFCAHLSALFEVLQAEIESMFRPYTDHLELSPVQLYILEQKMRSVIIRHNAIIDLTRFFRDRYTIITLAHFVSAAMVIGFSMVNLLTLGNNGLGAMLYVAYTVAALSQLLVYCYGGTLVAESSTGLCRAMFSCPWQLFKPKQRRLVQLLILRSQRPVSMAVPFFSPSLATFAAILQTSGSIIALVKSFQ
T1 sequence (Q9VNB5 1-486 partner): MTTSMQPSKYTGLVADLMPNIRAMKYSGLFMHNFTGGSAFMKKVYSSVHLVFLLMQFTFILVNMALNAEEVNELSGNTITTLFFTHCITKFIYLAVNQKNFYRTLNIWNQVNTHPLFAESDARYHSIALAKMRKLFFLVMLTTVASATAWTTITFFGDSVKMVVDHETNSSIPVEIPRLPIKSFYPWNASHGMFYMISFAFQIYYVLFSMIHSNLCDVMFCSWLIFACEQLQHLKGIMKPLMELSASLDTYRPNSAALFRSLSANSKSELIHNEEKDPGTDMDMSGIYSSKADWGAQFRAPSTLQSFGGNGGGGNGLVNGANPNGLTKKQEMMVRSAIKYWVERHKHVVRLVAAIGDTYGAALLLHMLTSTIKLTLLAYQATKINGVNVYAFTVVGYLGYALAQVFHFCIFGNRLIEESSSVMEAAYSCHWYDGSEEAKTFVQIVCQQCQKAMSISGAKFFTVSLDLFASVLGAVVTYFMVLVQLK
How it was run: (§1)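 HEK293 lines stably expressing each Drosophila OR with GCaMP6, doxycycline-induced (1 μg/mL) 48 or 72 h. Fluorescence recorded 5 s baseline then 30 s after VOC injection at pH 7.3; ΔF=(FMAX−F0)/F0, normalized to 50 µM VUAA1 response per line, triplicate wells averaged; concentration series 0.01–100 μM.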

Drosophila OR85b = target: T2, Drosophila OR85b (Drosophila melanogaster, UniProt Q9VHQ7); assay: Calcium ion fluorescence (GCaMP6) assay, OR85b stable HEK293 cell line; format: cell-based; conditions: for OR85b response (VUAA1-normalized) at 1 μM / OR85b response (VUAA1-normalized) at 10 μM / OR85b response (VUAA1-normalized) at 100 μM / Average response: OR85b cell line; for OR85b response (VUAA1-normalized) at 1 μM: VOC concentration 1 μM; for OR85b response (VUAA1-normalized) at 10 μM: VOC concentration 10 μM; for OR85b response (VUAA1-normalized) at 100 μM: VOC concentration 100 μM; for Average response: VUAA1-normalized response, mean of biological replicates; for DF norm AVERAGE OR85b: 0.05 threshold, values below shown as 0; for activation at 1 µM / activation at 10 µM / activation at 100 µM: HEK293, read-out: OR85b Average response (VUAA1-normalized)
T2 construct: expressed in transfected cells
T2 sequence (Q9VHQ7 1-390): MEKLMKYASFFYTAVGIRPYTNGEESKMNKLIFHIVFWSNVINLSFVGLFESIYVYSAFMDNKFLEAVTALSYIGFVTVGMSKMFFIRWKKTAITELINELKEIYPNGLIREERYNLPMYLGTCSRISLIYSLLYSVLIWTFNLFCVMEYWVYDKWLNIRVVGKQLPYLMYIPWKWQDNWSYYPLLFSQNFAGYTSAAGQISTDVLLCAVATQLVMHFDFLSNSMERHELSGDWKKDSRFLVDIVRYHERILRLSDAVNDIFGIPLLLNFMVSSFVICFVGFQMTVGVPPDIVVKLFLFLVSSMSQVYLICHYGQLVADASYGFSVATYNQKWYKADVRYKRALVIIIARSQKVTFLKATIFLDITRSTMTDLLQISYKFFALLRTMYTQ
T2 sequence (Q9VNB5 1-486 partner): T1 sequence (Q9VNB5 1-486 partner)
How it was run: as §1

[1] = HEK293, read-out: OR10a Average response (VUAA1-normalized), 1 μM VOC
[2] = HEK293, read-out: OR10a Average response (VUAA1-normalized), 10 μM VOC
[3] = HEK293, read-out: OR10a Average response (VUAA1-normalized), 100 μM VOC
[4] = ligand concentration 1 (unit not given), 0.05 threshold, values below shown as 0
[5] = ligand concentration 10 (unit not given), 0.05 threshold, values below shown as 0
[6] = ligand concentration 100 (unit not given), 0.05 threshold, values below shown as 0
[7] = ligand concentration 1 (unit not given)
[8] = ligand concentration 10 (unit not given)
[9] = ligand concentration 100 (unit not given)
[10] = HEK293, 1 μM VOC, read-out: OR10a Average response (VUAA1-normalized)
[11] = HEK293, 10 μM VOC, read-out: OR10a Average response (VUAA1-normalized)
[12] = HEK293, 100 μM VOC, read-out: OR10a Average response (VUAA1-normalized)

SMILES	activation at 1 µM (Drosophila OR10a; [1]) [%]	activation at 10 µM (Drosophila OR10a; [2]) [%]	activation at 100 µM (Drosophila OR10a; [3]) [%]	OR10a response (VUAA1-normalized) at 1 μM (Drosophila OR10a)	OR10a response (VUAA1-normalized) at 10 μM (Drosophila OR10a)	OR10a response (VUAA1-normalized) at 100 μM (Drosophila OR10a)	DF norm AVERAGE OR10a (Drosophila OR10a; [4])	DF norm AVERAGE OR10a (Drosophila OR10a; [5])	DF norm AVERAGE OR10a (Drosophila OR10a; [6])	OR85b response (VUAA1-normalized) at 1 μM (Drosophila OR85b)	OR85b response (VUAA1-normalized) at 10 μM (Drosophila OR85b)	OR85b response (VUAA1-normalized) at 100 μM (Drosophila OR85b)	Average response (Drosophila OR85b; cc. 1 µM)	Average response (Drosophila OR85b; cc. 10 µM)	Average response (Drosophila OR85b; cc. 100 µM)	DF norm AVERAGE OR85b (Drosophila OR85b; [7])	DF norm AVERAGE OR85b (Drosophila OR85b; [8])	DF norm AVERAGE OR85b (Drosophila OR85b; [9])	activation at 1 µM (Drosophila OR10a; [10]) [%]	activation at 10 µM (Drosophila OR10a; [11]) [%]	other results
C=Cc1ccccc1 [styrene]	3	0	14	0.00	0.00	0.14	0	0	0.144	0.00	0.00	0.00	0.00	0.00	0.0181	0	0	0			
CCCCCCCCCCCCCC [tetradecane]				0.11	0.00	0.08		0		0.10	0.0844	0.00	0.10	0.0844	0.04	0.0972	0.08442	0	11	4.22	activation at 100 µM (Drosophila OR10a; [12]): 8%; DF norm AVERAGE OR10a (Drosophila OR10a; ligand concentration 1 (unit not given), […]): 0.1095; DF norm AVERAGE OR10a (Drosophila OR10a; ligand concentration 100 (unit not given), […]): 0.08392
Cc1ccccc1 [toluene]	3	0	7	0.00	0.00	0.07	0	0	0.07043	0.0843	0.07	0.11	0.0843	0.07	0.11	0.08429	0.067	0.1125			activation at 1 µM (Drosophila OR85b): 8%; activation at 10 µM (Drosophila OR85b): 7%; activation at 100 µM (Drosophila OR85b): 11%
CCCCCCCCCCC [undecane]				0.00	0.00	0.00	0	0	0	0.00	0.05	0.11	0.0284	0.05	0.11	0	0.05165	0.1131	0	0	activation at 100 µM (Drosophila OR10a; [12]): 0%; activation at 1 µM (Drosophila OR85b): 3%; activation at 10 µM (Drosophila OR85b): 5%; activation at 100 µM (Drosophila OR85b): 11%

Source: article PMC10709440, “High-throughput ligand profile characterization in novel cell lines expressing seven heterologous insect olfactory receptors for the detection of volatile plant biomarkers” (Scientific Reports, 2023)
